Data on twelve compounds can be found in patent US20110217300A1, “Quinazolinone Compounds and Methods of Use Thereof” (priority 2007, published 2011).

In one test the target is T1, HsEg5 (Homo sapiens, UniProt P52732).
T1 sequence (P52732 18-359 limits assumed): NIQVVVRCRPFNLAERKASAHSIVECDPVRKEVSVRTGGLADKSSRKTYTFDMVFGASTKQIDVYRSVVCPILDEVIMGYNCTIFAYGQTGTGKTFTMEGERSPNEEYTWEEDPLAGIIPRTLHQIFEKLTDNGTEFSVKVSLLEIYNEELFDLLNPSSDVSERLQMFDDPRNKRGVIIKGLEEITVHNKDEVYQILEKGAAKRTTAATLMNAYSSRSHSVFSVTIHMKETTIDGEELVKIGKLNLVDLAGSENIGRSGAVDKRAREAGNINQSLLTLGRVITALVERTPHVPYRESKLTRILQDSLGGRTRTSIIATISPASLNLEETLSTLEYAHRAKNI
In words: Fluorescence detection of HsEg5 ATPase activity (ADP Quest, automated). It counts as biochemical. As to the method:
Purified HsEg5 motor fragment was activated by mixture with preformed MT polymer (Cytoskeleton, Denver, Colo.) at room temperature for 20 minutes. MT activated ATPase activity was measured using ADP Quest (DiscoverX, Fremont, Calif.) in which a coupled-enzyme assay can translate accumulation of ADP into detectable resorufin signal (FIG. 1A). Fluorescence was measured at λEx=535 nm and λEm=590 nm on a Wallac Victor 2 plate reader (Perkin-Elmer Life Sciences, Boston, Mass.). Reagent A and B from ADP Quest kit were aliquoted and frozen in −20° C. before use. A standard curve was determined using the provided ADP reagent in the reaction buffer that consisted of 50 mM Pipes (pH7.0), 5.0 mM MgCl2, 20 μM paclitaxel and […]. The same buffer was used for Km determination with HsEg5 concentration of 10 nM.
For inhibitor screening, 4 μL of compounds were incubated with 10 μL of MT-activated HsEg5 such that the final concentrations for compound range from 100 μM to 5 nM (1 to 3 serial dilutions, final concentration) and final concentration for HsEg5 is 10 nM. The mixture was incubated at room temperature for 10 minutes with mild shaking. The screening assay contained 0.3% DMSO in all reaction wells. We used wells containing only DMSO as negative controls and wells without ATP as background. Addition of 6 μL ATP (final concentration of 20 μM) initiated the ATP hydrolysis reaction. The 20 μL-reaction was allowed to proceed at room temperature for 10 minutes before addition of 10 μL of reagent A and 20 μL of reagent B. After 20-minute development at room temperature, the fluorescence was measured and data analysis was performed using GraphPad Prism version 3.0 (GraphPad Software, San Diego, Calif.)
For the purpose of high-throughput screening, we automated the fluorescence assay using a Sciclone ALH3000 (Caliper Life Sciences, Hopkinton, Mass.) and Multidrop 384 (Thermo Electron Corp, Waltham, Mass.). First, compound dilution plates for screening (at 10 μM or 1 μM) and ICso determination (10 data points from 100 μM to 5 nM) were made in Corning polypropylene V-bottom 96-well plates. In both cases, the 1st and 7th column contained background (No ATP addition) and negative control (DMSO only). For screening compounds at 10 μM or 1 μM, […] of each compound at 50 μM or 5 μM were used in a 20 μL assay reaction. For IC50 determination, the mother compound plate contained 24 μL of tested compound at stock concentration of 30 mM. 6 μL of each test compound in 30 mM was added to each well in the column 2 and followed by 1:3 serial dilutions in DMSO with the Sciclone ALH3000. 234 μL of assay buffer was then added using a Multidrop 384. Then 4 μL of diluted compounds was used in 20 μL-reaction. The final concentration was a 1:300 dilution of the original stock. Second, a reagent source plate was prepared with three rows designated to MT-activated HsEg5, Reagent A and Reagent B respectively. MTs were diluted with assay buffer and polymerized at room temperature for 10 minutes. Just before use, HsEg5 protein was thawed on ice and activated by addition of MT polymers at room temperature for 20 minutes. HsEg5/MT was then added to Row A of the reagent source plate. The final assay concentration was 10 nM HsEg5 and 500 nM MTs. Reagent A and B were stored at −20° C. and thawed at room temperature followed by transferring to rows B & C of the reagent source plate. Third, ATP substrate plate was prepared by transferring 80 μM ATP solution to each well of a V-shape 96-well plate except the wells in the first row where assay buffer was added instead to have no-ATP blanks. The final concentration for ATP in the assay was 20 μM.
The assay was programmed on Sciclone ALH3000 with the following procedures: 1) Addition of 4 μL compounds to the assay plate, followed by addition of 10 μL of MT-activated HsEg5. […]

For a further test, the system named is NCI-H460. In words: MTS cell viability assay. Conditions: Homo sapiens, NCI-H460, 72 h. It counts as cell-based, human. The method, then: Cell viability was determined by measuring the activity of dehydrogenase enzymes in metabolically active cells using a tetrazolium compound, MTS. The assay was performed as described in Promega Technical Bulletin No. 169 (CellTiter 96 Aqueous Non-Radioactive Cell Proliferation Assay). Two human cancer cell lines were assayed (see, Table 1). Cells were maintained at 37° C. and 5% CO2 in DMEM media (4.5 g/L glucose) supplemented with 10% heat-inactivated FBS, 10 mM L-glutamine, and 10 mM Hepes pH 7.5. Briefly, cells were seeded in 96-well plates as set forth in Table 1 and incubated for 16-24 hours. Candidate compounds were serially diluted in DMSO, further diluted in cell culture media, and then added to cells (final DMSO concentration of 0.33%). Cells were incubated in the presence of candidate compound for 72 hours. MTS stock solution (MTS 2 gm/L, PMS […] in PBS) was added to the cells (final concentration MTS […] and PMS 7.67 mg/L) and incubated for 4 hours. SDS was added to a final concentration of 1.4% and absorbance at 490 nm was measured within two hours using a plate reader. […] GI50 values were given in Table 2 for the compounds listed. The Compound Numbers in Table 2 correspond to the numbers listed parenthetically in the Example titles. Where multiple measurements were made by different technicians, both values are given.
Cell viability was determined for N-(3-amino-propyl)-3-chloro-N—[(R)-1-(7-chloro-4-oxo-3-phenylamino-3,4-dihydro-quinazolin-2-yl)-but-3-ynyl]-2-fluoro-benzamide (compound I of Table 2). The cell viability assay of Example 105 was used. GI50 was determined using a variety of cell lines. Cells were plated at 100-5000 cells per well. At least 2 replicates were performed. Where multiple measurements were made by different technicians, both values are given.

In another test the test system is A549. Put plainly: MTS cell viability assay. It counts as cell-based. The following applies: Homo sapiens, A549 non small cell lung, 72 hours, read-out: MTS NCI A549 GI50. The method, then:
Two human cancer cell lines were assayed (see, Table 1). Cells were maintained at 37° C. and 5% CO2 in DMEM media (4.5 g/L glucose) supplemented with 10% heat-inactivated FBS, 10 mM L-glutamine, and 10 mM Hepes pH 7.5. Briefly, cells were seeded in 96-well plates as set forth in Table 1 and incubated for 16-24 hours. Candidate compounds were serially diluted in DMSO, further diluted in cell culture media, and then added to cells (final DMSO concentration of 0.33%). Cells were incubated in the presence of candidate compound for 72 hours. […] The Compound Numbers in Table 2 correspond to the numbers listed parenthetically in the Example titles.
(Formazan colour is commonly taken as a measure of viable cells.)

[1] abbreviates: read-out: MTS NCI H460 GI50, NCI-H460 non small cell lung, 72 hours.

Where two headings read alike, the source gives them in different places.

Turning to `CCC(c1nc2cc(Cl)ccc2c(=O)n1Nc1ccccc1)N(CCCN)C(=O)c1ccc(F)c(F)c1F` (stereo not drawn) [Compound 10, N-(3-Aminopropyl)-N-[1-(3-anilino-7-chloro-4-oxo-3,4-dihydroquinazolin-2-yl)propyl]-2,3,4-trifluorobenzamide], the IC50 (in general, the concentration that gives 50% inhibition) against HsEg5 was found to be 599 nM. The GI50 (usually the concentration giving 50% growth inhibition) in the test with NCI-H460 (setting [1]) was 1140 nM; in the test on A549 (A549, 72 h), 2360 nM.

As to `CSCCC(c1nc2cc(Cl)ccc2c(=O)n1Nc1ccccc1)N(CCCN)C(=O)c1ccc(C)c(F)c1F` (stereo not drawn) [Compound 39, N-(3-Aminopropyl)-N-[1-(3-anilino-7-chloro-4-oxo-3,4-dihydroquinazolin-2-yl)-3-(methylthio)propyl]-2,3-difluoro-4-methylbenzamide], at HsEg5, the IC50 came out at 3010 nM. Further, the values for the GI50 with NCI-H460 (read-out: MTS NCI H460 GI50) and in the test on A549 were 4490 nM and 6090 nM, respectively.

The compound `NCCCN(C(=O)c1cccc(F)c1F)C(Cc1cccs1)c1nc2cc(Cl)ccc2c(=O)n1Nc1ccccc1` (stereo not drawn) [Compound 50, N-(3-Aminopropyl)-N-[1-(3-anilino-7-chloro-4-oxo-3,4-dihydroquinazolin-2-yl)-2-(2-thienyl)ethyl]-2,3-difluorobenzamide] yielded an IC50 on HsEg5 of 1180 nM. Also, the GI50 in the test on NCI-H460 (setting [1]) was found to be 3120 nM; with A549 (A549, 72 h), 3770 nM.

Compound `CC(C)(C)CC(c1nc2cc(Cl)ccc2c(=O)n1Nc1ccccc1)N(CCCN)C(=O)c1ccc(Br)cc1` (stereo not drawn) [Compound 58, N-(3-Aminopropyl)-N-[1-(3-anilino-7-chloro-4-oxo-3,4-dihydroquinazolin-2-yl)-3,3-dimethylbutyl]-4-bromobenzamide] showed an IC50 against HsEg5 of 3690 nM. The GI50 in the test on NCI-H460 (read-out: MTS NCI H460 GI50) worked out at 5550 nM; in the test with A549 it was 5880 nM.

Consider `CSCCC(c1nc2cc(Cl)ccc2c(=O)n1Nc1ccccc1)N(CCCN)C(=O)c1ccc(-n2cccn2)cc1` (stereo not drawn) [Compound 40, N-(3-Aminopropyl)-N-[1-(3-anilino-7-chloro-4-oxo-3,4-dihydroquinazolin-2-yl)-3-(methylthio)propyl]-4-(1H-pyrazol-1-yl)benzamide], for which the IC50 at HsEg5 came out at 2830 nM. Further, the values for the GI50 in the test with NCI-H460 (read-out: MTS NCI H460 GI50) and in the test on A549 were 8350 nM and 6120 nM, respectively.

In turn, `CCC(c1nc2cc(Cl)ccc2c(=O)n1Nc1ccccc1)N(CCCN)C(=O)c1ccc(C)c(F)c1` (stereo not drawn) [Compound 16, N-(3-Aminopropyl)-N-[1-(3-anilino-7-chloro-4-oxo-3,4-dihydroquinazolin-2-yl)propyl]-3-fluoro-4-methylbenzamide] gave an IC50 against HsEg5 of 1150 nM. Further, the concentration for 50% growth inhibition (GI50) with NCI-H460 (read-out: MTS NCI H460 GI50) worked out at 929 nM; with A549, 1360 nM.

For the compound `CC[C@H](c1nc2cc(Cl)ccc2c(=O)n1Nc1ccccc1)N(CCCN)S(=O)(=O)c1ccsc1` [Compound 34, N-(3-Aminopropyl)-N-[(1R)-1-(3-anilino-7-chloro-4-oxo-3,4-dihydroquinazolin-2-yl)propyl]thiophene-3-sulfonamide], the IC50 against HsEg5 is 1650 nM. For the same compound, the GI50 with NCI-H460 (read-out: MTS NCI H460 GI50) was 5470 nM; in the test with A549, 6360 nM.

Turning to `CCC(c1nc2cc(Cl)ccc2c(=O)n1Nc1ccccc1)N(CCCN)C(=O)c1cc(Cl)cc(Cl)c1` (stereo not drawn) [Compound 11, N-(3-Aminopropyl)-N-[1-(3-anilino-7-chloro-4-oxo-3,4-dihydroquinazolin-2-yl)propyl]-3,5-dichlorobenzamide], half-maximal inhibition against HsEg5 (IC50) was put at 735 nM. Also, the GI50 with NCI-H460 (read-out: MTS NCI H460 GI50) amounted to 2440 nM; in the test on A549, 3010 nM.

Compound `CC(C)CC(c1nc2cc(Cl)ccc2c(=O)n1Nc1ccccc1)N(CCCN)C(=O)c1cc(Cl)cc(Cl)c1` (stereo not drawn) [Compound 36, N-(3-Aminopropyl)-N-[1-(3-anilino-7-chloro-4-oxo-3,4-dihydroquinazolin-2-yl)-3-methylbutyl]-3,5-dichlorobenzamide] came in with an IC50 against HsEg5 of 1860 nM. Besides, the GI50 was 3770 nM with NCI-H460 (read-out: MTS NCI H460 GI50) and 4370 nM with A549.

As to `CCC(c1nc2cc(Cl)ccc2c(=O)n1Nc1cccc(F)c1)N(CCCN)C(=O)c1ccc(C)cc1` (stereo not drawn) [Compound 24, N-(3-Aminopropyl)-N-(1-{7-chloro-3-[(3-fluorophenyl)amino]-4-oxo-3,4-dihydroquinazolin-2-yl}propyl)-4-methylbenzamide], half-maximal inhibition on HsEg5 (IC50) required 1050 nM. For the same compound, the GI50 in the test with NCI-H460 (read-out: MTS NCI H460 GI50) worked out at 1090 nM; in the test on A549 it was 1790 nM.

At HsEg5, `C#CCC(c1nc2cc(Cl)ccc2c(=O)n1Nc1ccccc1)N(CCCN)C(=O)c1cc(F)c(Cl)cc1F` (stereo not drawn) [Compound 56, N-(3-Aminopropyl)-N-[1-(3-anilino-7-chloro-4-oxo-3,4-dihydroquinazolin-2-yl)but-3-yn-1-yl]-4-chloro-2,5-difluorobenzamide] displayed an IC50 of 138 nM. Besides, the GI50 in the test with NCI-H460 (read-out: MTS NCI H460 GI50) was 1860 nM; with A549 it was 3820 nM.

Take `CCC(c1nc2cc(Cl)ccc2c(=O)n1Nc1ccccc1)N(CCCN)C(=O)c1ccc(I)cc1` (stereo not drawn) [Compound 15, N-(3-Aminopropyl)-N-[1-(3-anilino-7-chloro-4-oxo-3,4-dihydroquinazolin-2-yl)propyl]-4-iodobenzamide]: on HsEg5, 1650 nM corresponded to half-maximal inhibition (IC50). In addition, the GI50 in the test on NCI-H460 (setting [1]) was determined as 2270 nM; in the test on A549 (A549, 72 h), 3080 nM.
